The nature of data set [1]: physchem. The settings on record: pH 7.4, aqueous buffer, kinetic from dmso stock.
In data set [2] the target is T1, human farnesoid X receptor (Homo sapiens, UniProt Q96RI1).
T1 construct: CMX-farnesoid X receptor (full length human farnesoid X receptor); expressed in transfected cells; host or cells: CV-1 African Green Monkey Kidney cells
T1 sequence (Q96RI1 1-472 isoform Q96RI1-2): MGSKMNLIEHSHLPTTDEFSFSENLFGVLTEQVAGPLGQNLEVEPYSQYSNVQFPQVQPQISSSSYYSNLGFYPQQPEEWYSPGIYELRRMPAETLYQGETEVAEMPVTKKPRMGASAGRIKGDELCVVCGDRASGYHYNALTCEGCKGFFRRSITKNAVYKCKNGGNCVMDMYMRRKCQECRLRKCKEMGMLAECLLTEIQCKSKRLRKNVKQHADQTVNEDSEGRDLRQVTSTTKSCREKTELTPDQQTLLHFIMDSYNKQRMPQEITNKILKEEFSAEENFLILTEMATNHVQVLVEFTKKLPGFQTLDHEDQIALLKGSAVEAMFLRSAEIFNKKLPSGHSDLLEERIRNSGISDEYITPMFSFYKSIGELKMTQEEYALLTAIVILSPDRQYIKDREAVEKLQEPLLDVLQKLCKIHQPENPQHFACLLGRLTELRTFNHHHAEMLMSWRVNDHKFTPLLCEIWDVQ
T1 sequence (P19793 1-462 partner): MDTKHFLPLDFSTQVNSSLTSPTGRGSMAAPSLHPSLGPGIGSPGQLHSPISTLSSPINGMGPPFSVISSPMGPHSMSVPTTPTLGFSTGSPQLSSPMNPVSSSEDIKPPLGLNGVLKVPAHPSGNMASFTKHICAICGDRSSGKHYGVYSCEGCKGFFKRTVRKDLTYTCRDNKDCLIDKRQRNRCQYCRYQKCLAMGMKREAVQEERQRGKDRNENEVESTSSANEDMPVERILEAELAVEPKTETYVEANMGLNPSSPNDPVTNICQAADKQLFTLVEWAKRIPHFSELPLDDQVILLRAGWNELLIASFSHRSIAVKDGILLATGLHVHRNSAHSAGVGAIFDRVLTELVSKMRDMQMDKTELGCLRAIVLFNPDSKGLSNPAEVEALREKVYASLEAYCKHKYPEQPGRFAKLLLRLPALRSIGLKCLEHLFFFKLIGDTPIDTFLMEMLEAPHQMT
Kind of data set: FXR in vitro assays (farnesoid X receptor/ECREx7 co-transfection assay, TR-FRET assay), Table I. The format is cell-based. The settings on record: for EC50: agonist activity, one or more of the in vitro assays, read-out: EC50; for Emax: read-out: % Efficacy. In outline: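 CV-1 monkey kidney cells transfected for an FXR/ECREx7 luciferase co-transfection reporter; luciferase read 18-20 h later in lysates. 8-point dose-response at ½-log spacing, 4 wells per point; EC50/IC50 from four-parameter Hill fit, averaged over at least 3 independent experiments.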
A general note: Time-resolved FRET reads energy transfer from a long-lived donor to a nearby acceptor.

The values below come from patent publication US20090203577A1 (EXELIXIS, INC., priority 2005, published 2009).

One may read the solubility (kinetic) as solubility judged after dilution from a stock solution rather than from solid. For orientation: EC50 means the concentration needed to bring the measured effect to its halfway point.

In brackets after ≈: the same amount, converted by molar mass.

In turn, `CC(C)OC(=O)C1=CN(C(=O)c2ccc(F)c(F)c2)CC(C)(C)c2c1[nH]c1cc(OC(=O)OC(C)(C)C)ccc21` [Example 96, 1-methylethyl 3-[(3,4-difluorophenyl)carbonyl]-8-({[(1,1-dimethylethyl)oxy]carbonyl}oxy)-1,1-dimethyl-1,2,3,6-tetrahydroazepino[4,5-b]indole-5-carboxylate] returned a kinetic solubility at 1.5 h in data set [1] of 1 to 10 µM (≈ 0.555 to 5.55 µg/mL). Also, in data set [2], the EC50 was in the range of 10 to 100 nM and the Emax is greater than 100%.

Consider `CC(C)OC(=O)C1=CN(C(=O)c2cccc(OCc3ccccc3)c2)CC(C)(C)c2c1[nH]c1ccccc21` [Example 127, 1-methylethyl 1,1-dimethyl-3-({3-[(phenylmethyl)oxy]phenyl}carbonyl)-1,2,3,6-tetrahydroazepino[4,5-b]indole-5-carboxylate], for which the solubility (kinetic) at 1.5 h in data set [1] lay in the range of 1 to 10 µM (≈ 0.509 to 5.09 µg/mL). Also, in data set [2], the EC50 is 10 to 100 nM and the Emax was greater than 100%.

`Cc1ccc(C(=O)N2C=C(C(=O)OC(C)C)c3[nH]c4ccccc4c3C(C)(C)C2)cc1F` [Example 130, 1-methylethyl 3-[(3-fluoro-4-methylphenyl)carbonyl]-1,1-dimethyl-1,2,3,6-tetrahydroazepino[4,5-b]indole-5-carboxylate] gave a solubility (kinetic) at 1.5 h in data set [1] of 1 to 10 µM (≈ 0.435 to 4.35 µg/mL). Also, in data set [2], the EC50 is 10 to 100 nM and the Emax is greater than 100%.

In data set [1], `CC(C)OC(=O)C1=CN(C(=O)c2ccc(C(F)(F)F)cc2F)CC(C)(C)c2c1[nH]c1ccccc21` [Example 131, 1-methylethyl 3-{[2-fluoro-4-(trifluoromethyl)phenyl]car-bonyl}-1,1-dimethyl-1,2,3,6-tetrahydroazepino[4,5-b]indole-5-carboxylate] displayed a kinetic solubility at 1.5 h greater than 10 µM. Further, in data set [2], the EC50 was 100 to 1000 nM and the Emax was greater than 100%.

In turn, `CC(C)OC(=O)C1=CN(C(=O)c2ccc(C(F)(F)F)c(Cl)c2F)CC(C)(C)c2c1[nH]c1ccccc21` [Example 132, 1-methylethyl 3-{[3-chloro-2-fluoro-4-(trifluoromethyl)phenyl]car-bonyl}-1,1-dimethyl-1,2,3,6-tetrahydroazepino[4,5-b]indole-5-carboxylate] displayed a kinetic solubility at 1.5 h in data set [1] of 1 to 10 µM (≈ 0.523 to 5.23 µg/mL). Also, in data set [2], the EC50 lay within 100 to 1000 nM and the Emax is greater than 100%.

Take `CC(C)OC(=O)C1=CN(C(=O)c2cc(F)cc(C(F)(F)F)c2)CC(C)(C)c2c1[nH]c1ccccc21` [Example 134, 1-methylethyl 3-{[3-fluoro-5-(trifluoromethyl)phenyl]car-bonyl}-1,1-dimethyl-1,2,3,6-tetrahydroazepino[4,5-b]indole-5-carboxylate]: in data set [1], the kinetic solubility at 1.5 h lay within 1 to 10 µM (≈ 0.488 to 4.88 µg/mL). For the same compound, in data set [2], the 50% effective concentration (EC50) was in the range of 10 to 100 nM and the Emax is greater than 100%.

In turn, `CC(C)OC(=O)C1=CN(C(=O)c2cc(C(F)(F)F)cc(C(F)(F)F)c2)CC(C)(C)c2c1[nH]c1ccccc21` [Example 135, 1-methylethyl 3-{[3,5-bis(trifluoromethyl)phenyl]carbonyl}-1,1-dimethyl-1,2,3,6-tetrahydroazepino[4,5-b]indole-5-carboxylate] registered a solubility (kinetic) at 1.5 h in data set [1] of 1 to 10 µM (≈ 0.538 to 5.38 µg/mL). Besides, in data set [2], the EC50 is 10 to 100 nM and the Emax is greater than 100%.

`CC(C)OC(=O)C1=CN(C(=O)c2cc(C(F)(F)F)ccc2C(F)(F)F)CC(C)(C)c2c1[nH]c1ccccc21` [Example 137, 1-methylethyl 3-{[2,5-bis(trifluoromethyl)phenyl]carbonyl}-1,1-dimethyl-1,2,3,6-tetrahydroazepino[4,5-b]indole-5-carboxylate]: in data set [1], the kinetic solubility at 1.5 h is 0.1 to 1 µM (≈ 0.0538 to 0.538 µg/mL). In data set [2], the EC50 is 100 to 1000 nM and the Emax was greater than 100%.

On to `CC(C)OC(=O)C1=CN(C(=O)c2ccc(C(F)(F)F)c(F)c2F)CC(C)(C)c2c1[nH]c1ccccc21` [Example 138, 1-methylethyl 3-{[2,3-difluoro-4-(trifluoromethyl)phenyl]car-bonyl}-1,1-dimethyl-1,2,3,6-tetrahydroazepino[4,5-b]indole-5-carboxylate], for which the solubility (kinetic) at 1.5 h in data set [1] lay within 0.1 to 1 µM (≈ 0.0506 to 0.506 µg/mL). In data set [2], the half-maximal effective concentration (EC50) was 10 to 100 nM and the Emax was greater than 100%.

The compound `CC(C)OC(=O)C1=CN(C(=O)c2cccc(O)c2)CC(C)(C)c2c1[nH]c1ccccc21` [Example 139, 1-methylethyl 3-[(3-hydroxyphenyl)carbonyl]-1,1-dimethyl-1,2,3,6-tetrahydroazepino[4,5-b]indole-5-carboxylate] showed a solubility (kinetic) at 1.5 h in data set [1] of 1 to 10 µM (≈ 0.418 to 4.18 µg/mL). In addition, in data set [2], the EC50 was 10 to 100 nM and the Emax was greater than 100%.

In data set [1], `CC(C)OC(=O)C1=CN(C(=O)c2cccc(OCCN(C)C)c2)CC(C)(C)c2c1[nH]c1ccccc21` [Example 140, 1-methylethyl 3-[(3-{[2-(dimethylamino)ethyl]oxy}phenyl)carbonyl]-1,1-dimethyl-1,2,3,6-tetrahydroazepino[4,5-b]indole-5-carboxylate] gave a solubility (kinetic) at 1.5 h greater than 10 µM. Besides, in data set [2], the Emax was greater than 100%.

With `CC(=O)N1CCN(Cc2cccc(C(=O)N3C=C(C(=O)OC(C)C)c4[nH]c5ccccc5c4C(C)(C)C3)c2)CC1` [Example 146, 1-methylethyl 3-({3-[(4-acetylpiperazin-1-yl)methyl]phenyl}carbonyl)-1,1-dimethyl-1,2,3,6-tetrahydroazepino[4,5-b]indole-5-carboxylate], in data set [1], the kinetic solubility at 1.5 h lay in the range of 1 to 10 µM (≈ 0.543 to 5.43 µg/mL). In data set [2], the EC50 is 100 to 1000 nM and the Emax was greater than 100%.

As for `CC1(C)CN(C(=O)c2ccc(F)c(F)c2)C=C(C(=O)OC[C@@H](O)CO)c2[nH]c3ccccc3c21` [Example 171, (2S)-2,3-dihydroxypropyl-3-[(3,4-difluorophenyl)carbonyl]-1,1-dimethyl-1,2,3,6-tetrahydroazepino[4,5-b]indole-5-carboxylate], the solubility (kinetic) at 1.5 h in data set [1] is greater than 10 µM. In data set [2], the EC50 was in the range of 10 to 100 nM and the Emax is greater than 100%.

Consider `CC(=O)N1CCCN(Cc2cccc(C(=O)N3C=C(C(=O)OC(C)C)c4[nH]c5ccccc5c4C(C)(C)C3)c2)CC1` [Example 177, 1-methylethyl 3-({3-[(4-acetyl-1,4-diazepan-1-yl)methyl]phenyl}carbonyl)-1,1-dimethyl-1,2,3,6-tetrahydroazepino[4,5-b]indole-5-carboxylate], for which the kinetic solubility at 1.5 h in data set [1] lay within 1 to 10 µM (≈ 0.557 to 5.57 µg/mL). In addition, in data set [2], the EC50 fell in the range of 100 to 1000 nM and the Emax was greater than 100%.

For the compound `CCNC(=O)N1CCN(Cc2cccc(C(=O)N3C=C(C(=O)OC(C)C)c4[nH]c5ccccc5c4C(C)(C)C3)c2)CC1` [Example 185, 1-methylethyl 3-{[3-({4-[(ethylamino)carbonyl]piper-azin-1-yl}methyl)phenyl]carbonyl}-1,1-dimethyl-1,2,3,6-tetrahydroazepino[4,5-b]indole-5-carboxylate], in data set [1], the kinetic solubility at 1.5 h is 1 to 10 µM (≈ 0.572 to 5.72 µg/mL). Also, in data set [2], the concentration for a half-maximal effect (EC50) lay within 100 to 1000 nM and the Emax is greater than 100%.

Regarding `CC(CO)OC(=O)C1=CN(C(=O)c2ccc(F)c(F)c2)CC(C)(C)c2c1[nH]c1ccccc21` (centres unmarked) [Example 193, 2-hydroxy-1-methylethyl 3-[(3,4-difluorophenyl)carbonyl]-1,1-dimethyl-1,2,3,6-tetrahydroazepino[4,5-b]indole-5-carboxylate], the kinetic solubility at 1.5 h in data set [1] was in the range of 1 to 10 µM (≈ 0.454 to 4.54 µg/mL). In addition, in data set [2], the EC50 was 10 to 100 nM and the Emax is greater than 100%.

Turning to `CC1(C)CN(C(=O)c2ccc(F)c(F)c2)C=C(C(=O)OCCO)c2[nH]c3ccccc3c21` [Example 196, 2-hydroxyethyl 3-[(3,4-difluorophenyl)carbonyl]-1,1-dimethyl-1,2,3,6-tetrahydroazepino[4,5-b]indole-5-carboxylate], in data set [1], the kinetic solubility at 1.5 h fell in the range of 1 to 10 µM (≈ 0.44 to 4.4 µg/mL). In addition, in data set [2], the EC50 fell in the range of 10 to 100 nM and the Emax was greater than 100%.
